Measured values taken from patent US20100215618A1, “NOVEL COMPOUNDS - 644” (Arrow Therapeutics Limited, priority 2009, published 2010).
Like-named read-outs stand apart in the source and are kept apart here.

How the values were obtained:
[1] = tested on: HCV replicon cells Huh 9B (genotype 1b); assay: 1b Replicon Assay (luciferase readout); type: cell-based; conditions: Hepatitis C virus, Huh 9B replicon cells, 72 h, luciferase activity
Experimental: HCV replicon cells Huh 9B (ReBlikon), containing the firefly luciferase-ubiquitin-neomycin phosphotransferase fusion protein and EMCV-IRES driven HCV polyprotein with cell culture adaptive mutations.
Cells were cultured at 37° C./5% CO2 and split twice a week. G418 at 0.5 mg/ml was added to the culture medium but not the assay medium.
The culture medium consisted of DMEM with […] glucose and Glutamax (Gibco 61965-026) supplemented with 1× non-essential amino acids (Invitrogen 11140-035), 0.5 mg/ml G418 (Invitrogen 10131-027) and 10% Australian foetal calf serum (Invitrogen 10099-141).
Replicon cells were trypsinised and counted. Cells were diluted to 100,000 cells/ml and 100 μl used to seed one opaque white 96-well plate (for the replicon assay) and one flat-bottomed clear plate (for the tox assay) for every five compounds to be tested for IC50. Wells G12 and H12 were left empty in the clear plate as the blank. Plates were then incubated at 37° C./5% CO2 for 24 h.
On the following day compound dilutions were prepared in medium at twice their desired final concentration in a clear round bottomed plate. All dilutions have a final DMSO concentration of 1%.
Controls and compounds were transferred from the dilution plates to the assay plates (containing the cells) at 100 μl/well in duplicate wells.
Exception: no compound was added to wells A1 and A2 of either plate and 100 μl of 1% DMSO was added to these instead. Plates were then incubated at 37° C./5% CO2 for 72 h.
At the end of the incubation time, the cells in the white plate were washed in PBS (100 μL per well) and dried by tapping before addition of 204 per well of lysis buffer (25 mM tris-phosphate, 8 mM MgCl2, 1 mM DTT, 1% Triton X-100, 15% glycerol; pH to 7.8 using KH2PO4 prior to Triton X-100 and glycerol addition). Aliquots of substrate (23.5 mM beetle luciferin (Promega E1603), 26 mM ATP (Sigma O-2060) in […] Tris buffer pH 7.8) were stored at −80° C. Prior to use, required amount of luciferin was thawed and diluted 1:50 in luciferase assay buffer (20 mM Tricine (Sigma T-0377), 1.07 mM magnesium carbonate hydroxide (Sigma M-5671), 0.1 mM EDTA (Sigma E-5134), 2.67 mM MgSO4(BDH 101514Y), 33.3 mM dithiothreitol (Sigma 150460) pH 7.8).
After 5-60 min incubation in lysis buffer at room temperature, a plate was inserted into the luminometer and 100 μl luciferase assay reagent was added by the injector of the luminometer. The signal was measured using a 1 second delay followed by a 4 second measurement programme. The IC50, the concentration of the drug required for reducing the replicon level by 50% in relation to the untreated cell control value, was calculated from the plot of the percentage reduction of the luciferase activity vs. drug concentration.

[2] = tested on: HCV genotype 1a replicon cells Htat2ANeo; assay: 1a Replicon Assay (cell-based anti-NS5a ELISA); conditions: Hepatitis C virus, 72 h
Experimental: HCV genotype la replicon cells Htat2ANeo (University of Texas), containing neomycin phosphotransferase fusion protein and EMCV-IRES driven HCV polyprotein with cell culture adaptive mutations, and control cells, Et2AN.
Cells were cultured at 37° C./5% CO2 and split twice a week. G418 at 0.5 mg/ml and Blastocidin at 2 mg/ml were added to the culture medium but not the assay medium.
The culture medium consisted of DMEM with […] glucose and Glutamax (Gibco 61965-026) supplemented with 1× non-essential amino acids (Invitrogen 11140-035), 0.5 mg/ml G418 (Invitrogen 10131-027), 2 mg/ml Blastocidin (PAA) and 10% is Australian foetal calf serum (Invitrogen 10099-141).
Replicon and control cells were trypsinised and counted. Replicon cells were diluted to 90,000 cells/ml and 100 μl of this used to seed columns 2-4, […] and 10-12 of a black, clear bottom 96-well plate for every three compounds to be tested for IC50. Control cells were diluted to 60,000 cells/ml and 100 μl of this used to seed columns 1, 5 and 9 of the plate. Well H1 was left empty as the blank. Plates were then incubated at 37° C./5% CO2 for 24 h.
On the following day compound dilutions were prepared in medium at twice their desired final concentration in a clear round bottomed plate.
Controls and compounds were transferred from the dilution plate to the assay plates (containing the cells) at 100 μl/well in quadruplicate wells, one well containing control cells and 3 wells containing replicon cells.
Exception: no compound was added to row H of the plate and 100 μl of 1% DMSO was added to these instead. Plates were then incubated at 37° C. with 5% CO2 for 72 h. At the end of the incubation time, any reduction in cell viability was assayed and a cell-based enzyme linked immunosorbent assay (ELISA) was performed. The media/compound was removed from all wells and replaced with 100 μl/well serum-free media and 20 μl/well Cell Titre Blue (Promega G8081). Following incubation at 37° C./5% CO2 for 2 h plates were read on a microplate fluorometer (Molecular Devices) using an excitation of 570 nm and an emission of 590 nm The TD50, the concentration of drug required to reduce 50% of Cell Titre Blue relative to the DMSO controls, was calculated by plotting the fluorescence at 590 nm after substraction of background against drug concentration.
The media/Cell Titre Blue was removed and plates washed in PBS and gently tapped dry before addition of 50 μL per well of 75% acetone/25% methanol mixture for 3 minutes. The fixative was then discarded and wells were washed with PBS before addition of 100 μl/well of blocking solution (2% non-fat dry milk and 0.05% Tween-20 in 0.85% NaCl). Plates were then incubated at 37° C. in a shaking incubator for 60 min. Blocking solution was discarded and 50 μl of mouse anti-NS5a antibody (Virostat 1877) at 1:100 dilution in blocking buffer was added to all wells. Plates were incubated at 37° C. in a shaking incubator for 90 min Antibody was then discarded and plates were washed 4 times by immersion in 0.85% NaCl/0.05% Tween-20. After washing plates were tapped dry gently and 50 μl of secondary antibody (Dako P0260 Rabbit anti-mouse horseradish peroxidase) at 1:1000 dilution in blocking buffer was added to the wells. Plates were incubated at 37° C. in a shaking incubator for 60 min. Antibody was discarded and plates were washed 6 times by immersion in 0.85% NaCl/0.05% Tween-20 and once in PBS. Finally, 50 μl of substrate (SigmaFast ortho-phenylene diamine dihydrochloride (OPD)) was added per well and the colorimetric reaction was allowed to proceed in the dark for 5 to 15 minutes depending on the strength or the signal. The reaction was stopped by addition of 25 μl/well of 20% sulphuric acid. Plates were read on the SpectraMax microplate reader at 490 nm fixed wavelength. […]

[3] = read-out: pIC50 1b Replicon (converted)
[4] = read-out: pIC50 1a Replicon (converted)

SMILES	IC50 ([1]; read-out: HCV IC50 1b Replicon)	IC50 [1, 3]	IC50 ([2]; read-out: HCV IC50 Elisa 1a)	IC50 [2, 4]
CCCS(=O)(=O)N1CCN(Cc2ccc(NC(=O)c3ccc(-c4ccc(-c5cnc([C@@H]6CCCN6C(=O)[C@@H](c6ccccc6)N(C)C)[nH]5)cc4)cc3)cc2)CC1 [Example 45, 4-[4-[2-[(2S)-1-[(2R)-2-(dimethylamino)-2-phenyl-acetyl]pyrrolidin-2-yl]-1H-imidazol-5-yl]phenyl]-N-[4-[(4-propylsulfonylpiperazin-1-yl)methyl]phenyl]benzamide]	0.03 nM	0.0263 nM	79.5 nM	79.4 nM
CCCS(=O)(=O)N1CCN(Cc2ccc(NC(=O)c3ccc(-c4ccc(-c5cnc([C@@H]6CCCN6C(=O)[C@@H](c6ccccc6)N(CC)CC)[nH]5)cc4)cc3)cc2)CC1 [Example 44, 4-[4-[2-[(2S)-1-[(2R)-2-(diethylamino)-2-phenyl-acetyl]pyrrolidin-2-yl]-1H-imidazol-5-yl]phenyl]-N-[4-[(4-propylsulfonylpiperazin-1-yl)methyl]phenyl]benzamide]	0.01 nM	0.0145 nM	50.5 nM	50.1 nM
CN(C)[C@@H](C(=O)N1CCC[C@H]1c1ncc(-c2cccc(-c3ccc(C(=O)Nc4ccc(CN5CCS(=O)(=O)CC5)cc4)cc3)c2)[nH]1)c1ccccc1 [Example 39, 4-[3-[2-[(2S)-1-[(2R)-2-(dimethylamino)-2-phenyl-acetyl]pyrrolidin-2-yl]-1H-imidazol-5-yl]phenyl]-N-[4-[(1,1-dioxo-1,4-thiazinan-4-yl)methyl]phenyl]benzamide]	4.81 nM	4.79 nM	1100 nM	1100 nM
CCCS(=O)(=O)N1CCN(Cc2ccc(NC(=O)c3ccc(-c4ccc(-c5cnc([C@@H]6CCCN6C(=O)[C@H](C)NC(=O)OC)[nH]5)cc4)cc3)cc2)CC1 [Example 41, Methyl N-[(1S)-1-methyl-2-oxo-2-[(2S)-2-[5-[4-[4-[[4-[(4-propylsulfonylpiperazin-1-yl)methyl]phenyl]carbamoyl]phenyl]phenyl]-1H-imidazol-2-yl]pyrrolidin-1-yl]ethyl]carbamate]	1.15 nM	1.15 nM	47 nM	46.8 nM
COC(=O)N[C@H](C(=O)N1CCCC[C@H]1c1ncc(-c2ccc(-c3ccc(C(=O)Nc4ccc(CN5CCS(=O)(=O)CC5)cc4)cc3)cc2)[nH]1)C(C)C [Example 50, methyl N-[(1S)-1-[(2S)-2-[5-[4-[4-[[4-[(1,1-dioxo-1,4-thiazinan-4-yl)methyl]phenyl]carbamoyl]phenyl]phenyl]-1H-imidazol-2-yl]piperidine-1-carbonyl]-2-methyl-propyl]carbamate]	2.98 nM	2.95 nM	28.2 nM	28.2 nM
CC(C)[C@H](N)C(=O)N1CCC[C@H]1c1ncc(-c2ccc(-c3ccc(C(=O)Nc4ccc(CN5CCS(=O)(=O)CC5)cc4)cc3)cc2)[nH]1 [Example 10, 4-[4-[2-[(2S)-1-[(2S)-2-amino-3-methyl-butanoyl]pyrrolidin-2-yl]-1H-imidazol-5-yl]phenyl]-N-[4-[(1,1-dioxo-1,4-thiazinan-4-yl)methyl]phenyl]benzamide]	65.2 nM	64.6 nM	320 nM	324 nM
CC(C)(C)OC(=O)NCC(=O)N1CCC[C@H]1c1ncc(-c2ccc(-c3ccc(C(=O)Nc4ccc(CN5CCS(=O)(=O)CC5)cc4)cc3)cc2)[nH]1 [Example 12, tert-Butyl N-[2-[(2S)-2-[5-[4-[4-[[4-[(1,1-dioxo-1,4-thiazinan-4-yl)methyl]phenyl]carbamoyl]phenyl]phenyl]-1H-imidazol-2-yl]pyrrolidin-1-yl]-2-oxo-ethyl]carbamate]	106 nM	105 nM	164 nM	162 nM
